Data: US4614807A, “6,7-dihalomelatonins” (Eli Lilly and Company, priority 1984, dated 1986)
Read-outs that look alike come from different tables or passages of the source.

Key:
ovulation [1] = assay: inhibition of ovulation, test compound given orally on the day of proestrus; absence of ova in oviduct; type: in vivo; details: oral, rat
Experimental: The compounds of the invention are ovulation inhibitors, with a longer duration of action than the monochloromelatonins. The degree of ovulation inhibitory activity was determined according to the following protocol.
Adult female rats with regular estrus cycles of four days each are employed. The estrus cycle consists of 2 days of diestrus followed by a day of proestrus and then a day of estrus. […] On the afternoon of proestrus, luteinizing hormone (LH) is released into the blood by the pituitary gland. The LH travels to the ovary where it induces ovulation, resulting in the presence of eggs in the oviduct on the day of estrus.
The test compound is administered orally at predetermined times on the day of proestrus. The rat is sacrificed on the following day (estrus). The oviduct is removed and examined microscopically for the presence of ova.
In the Table, column 1 gives the name of the compound, column 2 the time of administration and column 3 the percent inhibition of ovulation.

ovulation [2] = details: in vivo; cited from earlier work
[3] = tested on: estrous phase of the estrous cycle and ovulation; details: rats; cited from earlier work
[4] = tested on: estrous phase of the estrous cycle and ovulation; details: mice; cited from earlier work
[5] = time of administration 10:00 a.m.

SMILES: COc1cc2c(CCNC(C)=O)c[nH]c2cc1Cl [6-chloromelatonin]
- Percent Inhibition of ovulation (ovulation [1]; [5]): 0%
- ovulation blocking activity (ovulation [2]): increased ovulation blocking activity

SMILES: COc1cc2c(CCNC(C)=O)c[nH]c2cc1F [6-fluoromelatonin]
- ovulation blocking activity (ovulation [2]): increased ovulation blocking activity

SMILES: COc1cc2c(CCNC(C)=O)c[nH]c2c(Cl)c1Cl [6,7-dichloromelatonin, N-acetyl-5-methoxy-6,7-dichlorotryptamine]
- Percent Inhibition of ovulation (ovulation [1]; [5]): 100%

SMILES: COc1ccc2[nH]cc(CCNC(C)=O)c2c1 [melatonin, N-[2-(5-methoxy-3-indolyl)ethyl]acetamide]
- inhibition of estrous phase of the estrous cycle [3]: inhibited
- inhibition of ovulation [3]: inhibited
- inhibition of estrous phase of the estrous cycle [4]: inhibited
- inhibition of ovulation [4]: inhibited

SMILES: COc1cc2c(CC(C)NC(C)=O)c[nH]c2cc1Cl (stereo not drawn) [α-methyl-6-chloromelatonin]
- effect of α-methyl substitution on ovulation-blocking activity (ovulation [2]): no significant effect

SMILES: COc1cc2c(CCNC(C)=O)c(C)[nH]c2c(Cl)c1Cl [2-methyl-6,7-dichloromelatonin]
- Percent Inhibition of ovulation (ovulation [1]; time of administration 8:00 a.m.): 100%
